From PMC10892093 (Pharmaceutics, 2024)
Where two headings read alike, the source gives them in different places.

Legend:
[1] = test system: human kidney microsomes (HKM); experiment: Inhibition of R- and S-oxazepam glucuronidation in human kidney microsomes
Protocol: (§1) A Waters Corp BEH C18 Acquity UPLC column (1.7 µM, 2.1 × 100 mm) was used at a constant temperature of 40 °C for chromatographic separation. An elution gradient was used for 6.5 min with mobile phases A (5 mM ammonium formate) and B (100% methanol) under the following conditions: 90% A for 0.5 min, followed by a linear gradient for 3 min to 60% A, 1 min at 5% A, and re-equilibration for 1 min at 90% A.
(§2) The reaction was initiated by the addition of 4 mM UDPGA as the cofactor and incubated for 2 h at 37 °C. The reaction was terminated by adding 30 µL of an ice-cold stop solution (acetonitrile/methanol; 1:1). The reaction mixtures were centrifuged at 17,000× g for 30 min at 4 °C, and the supernatant was transferred to UPLC sample glass vial for analysis using UPLC–MS/MS (described above). […] As a positive control for inhibition assays, ketoconazole (10 μM and 100 µM) was used as a potential inhibitor of the UGTs 1A9, 2B7, and 2B15. Reactions containing only the cannabinoid vehicle (3% methanol) and without any inhibitor (cannabinoids) were used as a baseline reaction for 100% enzyme activity, while a reaction without UDPGA was used as a negative control. All experiments were performed in three independent experiments.
(§3) Determination of IC50 and Ki Values. […] The nonspecific binding constants (fu,inc) for cannabinoids in HEK293 microsomes, HLM, and HKM were previously determined and used to calculate the inhibition by unbound (‘free’) cannabinoid in each reaction. A nonlinear regression analysis and the following equation were used to calculate the IC50 values:(1) y = Bottom +Top − Bottom / 1 + 10^x − LogIC50A where ‘Bottom’ is the maximum observed inhibition (lowest percent activity) and ‘Top’ is the minimum observed inhibition (highest percent activity) for a given cannabinoid.

UGT2B7 = molecular target: T1, UGT2B7 (Homo sapiens, UniProt P16662); experiment: Inhibition of R- and S-oxazepam glucuronidation in rUGT2B7 microsomes (UGT-overexpressing HEK293); type: biochemical; settings: for IC50: rUGT2B7; for inhibition at 2 h, 100 µM: human, pH 7.4, rUGT2B7 microsomes
T1 construct: expressed in transfected cells; microsomal fraction
T1 sequence (P16662 24-529): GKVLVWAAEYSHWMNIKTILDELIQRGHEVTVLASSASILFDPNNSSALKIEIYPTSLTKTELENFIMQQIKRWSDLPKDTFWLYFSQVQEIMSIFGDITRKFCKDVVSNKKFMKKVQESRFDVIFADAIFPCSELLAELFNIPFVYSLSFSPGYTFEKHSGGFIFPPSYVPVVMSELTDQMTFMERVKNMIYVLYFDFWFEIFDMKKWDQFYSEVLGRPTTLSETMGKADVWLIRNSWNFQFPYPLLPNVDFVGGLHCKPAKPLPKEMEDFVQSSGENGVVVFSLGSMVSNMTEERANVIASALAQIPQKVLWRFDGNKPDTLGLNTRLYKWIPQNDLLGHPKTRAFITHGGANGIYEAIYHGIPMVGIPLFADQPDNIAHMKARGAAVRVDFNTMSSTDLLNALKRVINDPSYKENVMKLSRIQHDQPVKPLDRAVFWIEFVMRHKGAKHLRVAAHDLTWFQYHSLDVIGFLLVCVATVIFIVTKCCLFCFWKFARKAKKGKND
Protocol: Human embryonic kidney cells (HEK293) stably overexpressing the single UGTs 1A9, 2B7, and 2B15 have been previously established and described. Cells were grown in DMEM supplemented with 350 μg/mL of geneticin and 10% FBS and harvested in PBS. Microsomal fractions of UGT-overexpressing cell lines were prepared by differential centrifugation using previously described protocols. Briefly, cell homogenates were prepared by resuspending pelleted cells in PBS, followed by five rounds of freeze–thaw cycles prior to homogenization. Recombinant microsomes (rUGTs) were prepared by centrifuging the cell homogenate at a low speed (9000× g for 30 min) followed by ultracentrifugation (34,000× g for 60 min), with the total protein subsequently determined using a BCA assay. Recombinant microsomes (UGT1A9 and 2B7) and homogenates (UGT2B15) were used for inhibition studies.
as §1, §2, §3

[2] = test system: UGTs (S-oxazepam glucuronidation in HKM); experiment: Inhibition of R- and S-oxazepam glucuronidation in human kidney microsomes; settings: human, human kidney microsomes
Protocol: as §1, §2, §3

[3] = test system: UGTs (R-oxazepam glucuronidation in HKM); experiment: as above; settings: human, human kidney microsomes
Protocol: as §1, §2, §3

[4] = cited from earlier work
[5] = test system: UGTs (R-oxazepam glucuronidation in HLM); experiment: Inhibition of R- and S-oxazepam glucuronidation in human liver microsomes; settings: human, human liver microsomes
Protocol: as §1, §2, §3
(§4) The inhibition constant (Ki) was generated from the in vitro IC50 values assuming competitive inhibition (based on the Cheng–Prusoff equation; [49]). Considering that there have been no reports of the irreversible inhibition (e.g., mechanism-based inhibition) of UGTs, competitive inhibition was assumed as the worst-case scenario (highest inhibition) among all feasible types of reversible inhibitions. The substrate concentration used in the incubations was below the reported Km; therefore, the Ki values were predicted using Equation (2):(2) Ki=IC50/S/Km+1 where Km is Michaelis–Menten constant for the substrate, S is the substrate concentration, and IC50 is half-maximal inhibitory concentration.

[6] = test system: UGTs (S-oxazepam glucuronidation in HLM); experiment: as above; settings: human, human liver microsomes
Protocol: as §1, §2, §3, §4

[7] = read-out: IC50, R-Oxazepam Glucuronide
[8] = read-out: IC50, S-Oxazepam Glucuronide
[9] = read-out: IC50,u, S-Oxazepam Glucuronide, IC50 corrected with fu,inc
[10] = rUGT2B7 microsomes, 100 µM cannabinoid
[11] = pH 7.4, IC50, S-Oxazepam Glucuronide
[12] = pH 7.4, IC50,u, S-Oxazepam Glucuronide, IC50 corrected with fu,inc
[13] = pH 7.4, IC50, R-Oxazepam Glucuronide
[14] = pH 7.4, IC50,u, R-Oxazepam Glucuronide, IC50 corrected with fu,inc

Q: For “11-hydroxy-Δ^9-tetrahydrocannabinol [11-OH-THC]”, which IC50 [1, 7] is on record?
A: 18 ± 4.3 µM

Q: What about the IC50 [1, 8] of the same compound?
A: 19 ± 2 µM

Q: And the IC50 ([1]; read-out: IC50,u, R-Oxazepam Glucuronide, IC50 corrected with fu,inc)?
A: 1.7 ± 0.4 µM

Q: What about the IC50 [1, 9] of the same compound?
A: 1.8 ± 0.19 µM

Q: What about the IC50 (UGT2B7; IC50 corrected with fu,inc, read-out: IC50,u, R-Oxazepam Glucuronide) of the same compound?
A: 0.77 ± 0.64 µM

Q: And the IC50 (UGT2B7; IC50 corrected with fu,inc, read-out: IC50,u, S-Oxazepam Glucuronide)?
A: 0.53 ± 0.26 µM

Q: And the IC50 (UGT2B7; [7])?
A: 9.9 ± 8.2 µM

Q: What about the IC50 (UGT2B7; [8]) of the same compound?
A: 6.8 ± 3.3 µM

Q: What about the “Inhibition of R-oxazepam glucuronidation” value (UGT2B7; [10]) of the same compound?
A: 80%

Q: What about the “Inhibition of S-oxazepam glucuronidation” value (UGT2B7; [10]) of the same compound?
A: 81%

Q: With `C=C(C)[C@@H]1CCC(C)=C[C@H]1c1c(O)cc(CCCCC)cc1O` [CBD, cannabidiol] as the compound, how does the IC50 at 2 h [2, 11] read?
A: 16 ± 7.7 µM

Q: And the IC50 at 2 h [2, 12]?
A: 0.98 ± 0.48 µM

Q: And the IC50 at 2 h [3, 13]?
A: 5.9 ± 1 µM

Q: And the IC50 at 2 h [3, 14]?
A: 0.36 ± 0.062 µM

Q: What about the “Increase in N-desmethylclobazam concentration” value ([4]; coadministration of clobazam, stiripentol, and CBD 750 mg twice daily) of the same compound?
A: 3.4 fold

Q: What about the “Increase in the level of 1-hydroxymidazolam” value ([4]; oral CBD 750 mg twice daily with midazolam) of the same compound?
A: 12%

Q: And the inhibition at 2 h, 100 µM (UGT2B7; 100 µM cannabinoid, read-out: Inhibition of R-oxazepam glucuronidation)?
A: 95%

Q: What about the inhibition at 2 h, 100 µM (UGT2B7; 100 µM cannabinoid, read-out: Inhibition of S-oxazepam glucuronidation) of the same compound?
A: 89%

Q: And the IC50 at 2 h [5, 13]?
A: 16 ± 7.7 µM

Q: What about the IC50 at 2 h [5, 14] of the same compound?
A: 0.84 ± 0.39 µM

Q: And the IC50 at 2 h [6, 11]?
A: 87 ± 46 µM

Q: And the IC50 at 2 h [6, 12]?
A: 4.5 ± 2.4 µM

Q: Which IC50 [1, 7] does the source give for `CCCCCc1cc(O)c2c(c1)OC(C)(C)[C@@H]1CCC(C)=C[C@@H]21` [THC, Δ^9-tetrahydrocannabinol] here?
A: 94 ± 26 µM

Q: And the IC50 [1, 8]?
A: > 100 µM

Q: What about the IC50 [1, 9] of the same compound?
A: > 4.8 µM

Q: And the “Inhibition of R-oxazepam glucuronidation” value (UGT2B7; [10])?
A: 50%
